{"source": "paper PMC5632672", "about": "“Generation of Persister Cells of Pseudomonas aeruginosa and Staphylococcus aureus by Chemical Treatment and Evaluation of Their Susceptibility to Membrane-Targeting Agents” (Frontiers in Microbiology, 2017)", "key": {"[1]": {"test_system": "Pseudomonas aeruginosa ATCC 27853", "experiment": "Isothermal microcalorimetry, bacterial heat production", "type": "cell-based", "conditions": "P. aeruginosa stationary-phase culture incubated with CCCP 200 μg/mL, recorded for 24 h, Figure 3"}, "[2]": {"test_system": "Pseudomonas aeruginosa ATCC 27853", "experiment": "Flow cytometry, oxidoreductase activity with RedoxSensor Green", "type": "cell-based", "conditions": "P. aeruginosa, 3-h exposure to CCCP 200 μg/mL, Figure 4A", "protocol": "(§1) The metabolic activity of CCCP-induced PCs of P. aeruginosa and S. aureus was also evaluated by determining the oxidoreductase activity through flow cytometry. […] Then, bacterial suspensions were stained with the RedoxSensor^TM Green reagent (RSG) (BacLight^TM RedoxSensor^TM Green Vitality Kit, Thermo Fisher Scientific, Waltham, MA, United States) according to the manufacturer’s instructions. Briefly, 1 mL of the bacterial suspension was incubated with 1 μL (P. aeruginosa) or 0.1 μL (S. aureus) of 1 mM RSG for 10 min at 37°C in the dark. Stained samples were analyzed with a BD Accuri C6 flow cytometer (BD Biosciences, Mountain View, CA, United States) equipped with a 488 nm laser and a 533/30 nm optical filter. Data were collected and analyzed with BD Accuri C6 software (BD Biosciences), and results were plotted as cell counts versus fluorescence intensity."}, "[3]": {"test_system": "Staphylococcus aureus ATCC 33591", "experiment": "Flow cytometry, oxidoreductase activity with RedoxSensor Green", "type": "cell-based", "conditions": "S. aureus, 3-h exposure to CCCP 400 μg/mL, Figure 4B", "protocol": "as §1"}, "[4]": {"test_system": "Pseudomonas aeruginosa ATCC 27853", "experiment": "Revival assay of CCCP-induced persisters", "type": "cell-based", "conditions": "P. aeruginosa, CCCP 200 μg/mL 3 h, washed, fresh LB"}, "[5]": {"test_system": "Staphylococcus aureus ATCC 33591", "type": "cell-based", "conditions": "S. aureus, CCCP 400 μg/mL 3 h, washed, fresh LB"}, "[6]": {"test_system": "Pseudomonas aeruginosa ATCC 27853", "experiment": "Effect of CCCP on cell viability, CFU counting", "conditions": "P. aeruginosa stationary-phase cultures, CCCP at concentrations up to 200 μg/mL, 3 h, 37°C, Figure 1", "description": "(§2) Bacteria were grown in LB medium for approximately 18 h at 37°C to obtain stationary-phase cells, as assessed by monitoring bacterial growth by optical density. A volume of 1 mL of the overnight cultures was incubated with 10 μL of CCCP at different concentrations (from 25 to 400 μg/mL) for 3 h at 37°C with shaking. Bacterial cultures exposed to DMSO were used as cell viability control. Following the incubation, bacteria were washed twice in sodium-phosphate buffer (10 mM SPB, pH 7.4) by centrifugation (1700 × g for 10 min), subsequently diluted 10-fold in LB and plated on TSA to determine the number of CFU."}, "[7]": {"test_system": "Staphylococcus aureus ATCC 33591", "experiment": "Effect of CCCP on cell viability, CFU counting", "conditions": "S. aureus stationary-phase cultures, CCCP at concentrations up to 400 μg/mL, 3 h, 37°C, Figure 1", "description": "as §2"}, "[8]": {"test_system": "Staphylococcus aureus ATCC 33591", "experiment": "Isothermal microcalorimetry, bacterial heat production", "conditions": "S. aureus stationary-phase culture incubated with CCCP 400 μg/mL, recorded for 24 h, Figure 3", "description": "The metabolic profile of CCCP-induced persisters of P. aeruginosa and S. aureus was evaluated by real-time monitoring of bacterial heat production through isothermal microcalorimetry. […] Ampoules were inserted into the calorimeter, placed in the thermal equilibration position for 15 min and then lowered into the measuring position. After 45 min of signal stabilization, measurements of the heat flow were initiated and recorded for 24 h. Data analysis was performed with the manufacturer software (TAM Assistant) and GraphPad Prism (GraphPad Software, La Jolla, CA, United States), and results were plotted as heat flow (in microwatts) or total heat (in joules) versus time."}, "[9]": {"test_system": "Pseudomonas aeruginosa ATCC 27853", "experiment": "Induction of persistence with CCCP, survival to antibiotic treatment", "conditions": "P. aeruginosa"}, "[10]": {"test_system": "Staphylococcus aureus ATCC 33591", "experiment": "Induction of persistence with CCCP, survival to antibiotic treatment", "conditions": "S. aureus"}, "[11]": {"test_system": "Pseudomonas aeruginosa ATCC 27853", "experiment": "MIC and MBC by standard microdilution after revival of CCCP-induced persisters"}, "[12]": {"test_system": "Pseudomonas aeruginosa ATCC 27853"}, "[13]": {"test_system": "Staphylococcus aureus ATCC 33591"}, "[14]": {"test_system": "Staphylococcus aureus ATCC 33591", "experiment": "MIC and MBC by standard microdilution after revival of CCCP-induced persisters"}, "[15]": {"conditions": "CCCP 200 μg/mL for 3 h, then meropenem 10 μg/mL 3 h, Figure 2C"}, "[16]": {"conditions": "CCCP 400 μg/mL for 3 h, then gentamicin 10 μg/mL 3 h, Figure 2F"}, "[17]": {"conditions": "ATCC27853, read-out: MBC, CCCP-pretreated"}, "[18]": {"conditions": "ATCC27853, read-out: MBC, CCCP-untreated"}, "[19]": {"conditions": "ATCC33591, 24 h, read-out: MIC, CCCP-untreated"}, "[20]": {"conditions": "ATCC33591, read-out: MBC, CCCP-pretreated"}, "[21]": {"conditions": "ATCC33591, read-out: MBC, CCCP-untreated"}, "[22]": {"conditions": "ATCC33591, read-out: MIC, CCCP-pretreated"}}, "note": "Where two headings read alike, the source gives them in different places. Positions of bridges follow the written chain, without caps; N, C: chain ends. Non-standard residues stand in square brackets, D forms with d. Residues, ends and D or L forms follow the SMILES beside them. *: point of attachment. X1 = CC[C@H](C)CCCCC(=O)*; Dab = NCC[C@H](N)C(=O)O", "data": [{"molecule": "N#CC(C#N)=NNc1cccc(Cl)c1", "note": "[CCCP, Carbonyl cyanide m-chlorophenylhydrazone]", "values": [{"measurement": "basal heat production", "setting": "[1]", "result": "< 5", "unit": "μWh"}, {"measurement": "reduction in RSG fluorescence vs untreated control", "setting": "[2]", "result": "approximately three"}, {"measurement": "reduction in RSG fluorescence vs untreated control", "setting": "[3]", "result": "approximately three"}, {"measurement": "lag phase before resuming replication at a normal rate, optical density", "setting": "[4]; OD600, Figure 5B", "result": "approximately 1 h"}, {"measurement": "time lag in heat production after CCCP removal (time of maximum heat production)", "setting": "[4]; microcalorimetry, Figure 5A", "result": 1.5, "unit": "h"}, {"measurement": "lag phase before resuming replication at a normal rate, optical density", "setting": "[5]; OD600, Figure 5D", "result": "approximately 1 h"}, {"measurement": "delay in heat production after CCCP removal (time of maximum heat production)", "setting": "[5]; microcalorimetry, Figure 5C", "result": 1, "unit": "h"}, {"measurement": "effect on cell viability", "setting": "[6]", "result": "did not exert a significant killing effect"}, {"measurement": "effect on cell viability", "setting": "[7]", "result": "only a minor effect on cell viability"}, {"measurement": "basal heat production", "setting": "[8]", "result": "< 5", "unit": "μWh"}, {"measurement": "fold increase in the number of persister-like cells vs untreated control", "setting": "[9]; CCCP 200 μg/mL for 3 h, then ciprofloxacin 5 μg/mL 3 h, Figure 2A", "result": 5000, "unit": "fold"}, {"measurement": "fold increase in the percentage of bacteria tolerant to meropenem", "setting": "[9]; [15]", "result": 200, "unit": "fold"}, {"measurement": "percentage of starting bacterial population tolerant to meropenem after CCCP pretreatment", "setting": "[9]; [15]", "result": 35, "unit": "%"}, {"measurement": "fold increase in survival to gentamicin", "setting": "[10]; [16]", "result": "approximately 500 times"}, {"measurement": "percentage of cells becoming persisters (surviving gentamicin) after CCCP pretreatment", "setting": "[10]; [16]", "result": 20, "unit": "%"}, {"measurement": "percentage of initial population surviving levofloxacin exposure after CCCP pretreatment", "setting": "[10]; CCCP 400 μg/mL for 3 h, then levofloxacin 2.5 μg/mL 3 h, Figure 2D", "result": "approximately 60%"}]}, {"molecule": "O=C(O)c1cn(C2CC2)c2cc(N3CCNCC3)c(F)cc2c1=O", "note": "[Ciprofloxacin]", "values": [{"measurement": "percentage of stationary-phase culture surviving antibiotic exposure, no CCCP pretreatment", "setting": "[9]; ciprofloxacin 5 μg/mL, 3 h, SPB/LB, Figure 2A", "result": "less than 0.01%"}, {"measurement": "MIC", "setting": "[11]; ATCC27853, 24 h, read-out: MIC, CCCP-untreated", "result": 0.5, "unit": "µg/mL"}, {"measurement": "MBC", "setting": "[11]; [17]", "result": 1, "unit": "µg/mL"}, {"measurement": "MBC", "setting": "[11]; [18]", "result": 1, "unit": "µg/mL"}, {"measurement": "MIC", "setting": "[11]; ATCC27853, read-out: MIC, CCCP-pretreated", "result": 0.5, "unit": "µg/mL"}]}, {"molecule": "CC[C@H](C)CCCCC(=O)N[C@@H](CCN)C(=O)N[C@H](C(=O)N[C@@H](CCN)C(=O)N[C@H]1CCNC(=O)[C@H]([C@@H](C)O)NC(=O)[C@H](CCN)NC(=O)[C@H](CCN)NC(=O)[C@H](CC(C)C)NC(=O)[C@@H](CC(C)C)NC(=O)[C@H](CCN)NC1=O)[C@@H](C)O", "note": "[Colistin, colistin] (X1-[Dab]T[Dab][Dab][Dab][dL]L[Dab][Dab]T; lactam 4-C (inferred); N-terminus assumed)", "values": [{"measurement": "concentration eradicating persister-enriched cultures to the limit of detection (complete killing)", "setting": "[12]", "result": 3.5, "unit": "µM"}, {"measurement": "MBC, P. aeruginosa CCCP-pretreated", "setting": "[12]; ATCC 27853, 3 h", "result": 3.5, "unit": "µM"}, {"measurement": "MBC, P. aeruginosa CCCP-untreated", "setting": "[12]; ATCC 27853, 3 h", "result": 1.75, "unit": "µM"}, {"measurement": "fold increase in MBC against CCCP-pretreated vs CCCP-untreated bacteria", "setting": "[12]; P. aeruginosa", "result": 2, "unit": "fold"}]}, {"molecule": "CCCCCCCCCC(=O)N[C@@H](Cc1c[nH]c2ccccc12)C(=O)N[C@H](CC(N)=O)C(=O)N[C@@H](CC(=O)O)C(=O)N[C@@H]1C(=O)NCC(=O)N[C@@H](CCCN)C(=O)N[C@@H](CC(=O)O)C(=O)N[C@H](C)C(=O)N[C@@H](CC(=O)O)C(=O)NCC(=O)N[C@H](CO)C(=O)N[C@@H]([C@H](C)CC(=O)O)C(=O)N[C@@H](CC(=O)c2ccccc2N)C(=O)O[C@@H]1C", "note": "[Daptomycin]", "values": [{"measurement": "MBC, S. aureus CCCP-pretreated", "setting": "[13]; ATCC 33591, 3 h", "result": 112, "unit": "µM"}, {"measurement": "MBC, S. aureus CCCP-untreated", "setting": "[13]; ATCC 33591, 3 h", "result": 7, "unit": "µM"}, {"measurement": "fold higher concentration required to kill CCCP-induced persisters than untreated bacteria (MBC)", "setting": "[13]; S. aureus", "result": 16, "unit": "fold"}, {"measurement": "bactericidal concentration against persisters relative to those of the tested AMPs", "setting": "[13]; S. aureus CCCP-pretreated, Figure 6B", "result": "32 to 64", "unit": "fold"}]}, {"molecule": "CNC(C)C1CCC(N)C(OC2C(N)CC(N)C(OC3OCC(C)(O)C(NC)C3O)C2O)O1", "note": "(centres unmarked) [Gentamicin]", "values": [{"measurement": "MIC", "setting": "[14]; [19]", "result": 20, "unit": "µg/mL"}, {"measurement": "MBC", "setting": "[14]; [20]", "result": 40, "unit": "µg/mL"}, {"measurement": "MBC", "setting": "[14]; [21]", "result": 40, "unit": "µg/mL"}, {"measurement": "MIC", "setting": "[14]; [22]", "result": 20, "unit": "µg/mL"}]}, {"molecule": "C[C@H]1COc2c(N3CCN(C)CC3)c(F)cc3c(=O)c(C(=O)O)cn1c23", "note": "[Levofloxacin, levofloxacin]", "values": [{"measurement": "percentage of initial inoculum tolerating antibiotic treatment, no CCCP pretreatment", "setting": "[10]; levofloxacin 2.5 μg/mL, 3 h, SPB/LB, Figure 2D", "result": "approximately 0.5%"}, {"measurement": "MIC", "setting": "[14]; [19]", "result": 0.5, "unit": "µg/mL"}, {"measurement": "MBC", "setting": "[14]; [20]", "result": 0.5, "unit": "µg/mL"}, {"measurement": "MBC", "setting": "[14]; [21]", "result": 0.5, "unit": "µg/mL"}, {"measurement": "MIC", "setting": "[14]; [22]", "result": 0.5, "unit": "µg/mL"}]}, {"molecule": "C[C@@H](O)[C@H]1C(=O)N2C(C(=O)O)=C(S[C@@H]3CN[C@H](C(=O)N(C)C)C3)[C@H](C)[C@H]12", "note": "[Meropenem, meropenem]", "values": [{"measurement": "MBC", "setting": "[11]; [17]", "result": 10, "unit": "µg/mL"}, {"measurement": "MBC", "setting": "[11]; [18]", "result": 10, "unit": "µg/mL"}]}, {"molecule": "[WKKIRVRLSA]2-K-8Aoc-NH2 [Den-SB056]", "values": [{"measurement": "MBC, P. aeruginosa CCCP-pretreated", "setting": "[12]; persister-enriched cultures (CCCP 200 μg/mL, 3 h), SPB/LB, 1 × 10^6 CFU/mL, 3 h, 37°C, CFU counting", "result": 1.75, "unit": "µM"}, {"measurement": "MBC, P. aeruginosa CCCP-untreated", "setting": "[12]; stationary-phase cultures, CCCP-untreated, SPB/LB, 1 × 10^6 CFU/mL, 3 h, 37°C, CFU counting", "result": 0.87, "unit": "µM"}, {"measurement": "MBC, S. aureus CCCP-pretreated", "setting": "[13]; persister-enriched cultures (CCCP 400 μg/mL, 3 h), SPB/LB (daptomycin: deionized water with 1% LB and 75 μg/mL CaCl2), 1 × 10^6 CFU/mL, 3 h, 37°C, CFU counting", "result": 1.75, "unit": "µM"}, {"measurement": "MBC, S. aureus CCCP-untreated", "setting": "[13]; stationary-phase cultures, CCCP-untreated, SPB/LB (daptomycin: deionized water with 1% LB and 75 μg/mL CaCl2), 1 × 10^6 CFU/mL, 3 h, 37°C, CFU counting", "result": 1.75, "unit": "µM"}]}]}
